{"source": "patent US6566348B1", "about": "“Pesticides based on cyclic polysiloxanes” (Bayer Aktiengesellschaft, priority 1995, dated 2003)", "assay": "Crystallizing out at low temperatures", "format": "physicochemical"}
{"smiles": "C[Si]1(C)O[Si](C)(C)O[Si](C)(C)O[Si](C)(C)O[Si](C)(C)O1", "note": "[Decamethylcyclopentasiloxane, decamethylcyclopentasiloxane]", "values": [{"measurement": "stability at low temperatures", "value": "stable at low temperatures, without crystallizing out"}]}
